Measurements published in ChEMBL document CHEMBL1150375, “Novel inhibitors of the v-raf murine sarcoma viral oncogene homologue B1 (BRAF) based on a 2,6-disubstituted pyrazine scaffold” (J Med Chem, 2008).

Target: RAF proto-oncogene serine/threonine-protein kinase (Homo sapiens, UniProt P04049)
Test: Inhibition of CRAF

Chain of RAF proto-oncogene serine/threonine-protein kinase (P04049 whole entry): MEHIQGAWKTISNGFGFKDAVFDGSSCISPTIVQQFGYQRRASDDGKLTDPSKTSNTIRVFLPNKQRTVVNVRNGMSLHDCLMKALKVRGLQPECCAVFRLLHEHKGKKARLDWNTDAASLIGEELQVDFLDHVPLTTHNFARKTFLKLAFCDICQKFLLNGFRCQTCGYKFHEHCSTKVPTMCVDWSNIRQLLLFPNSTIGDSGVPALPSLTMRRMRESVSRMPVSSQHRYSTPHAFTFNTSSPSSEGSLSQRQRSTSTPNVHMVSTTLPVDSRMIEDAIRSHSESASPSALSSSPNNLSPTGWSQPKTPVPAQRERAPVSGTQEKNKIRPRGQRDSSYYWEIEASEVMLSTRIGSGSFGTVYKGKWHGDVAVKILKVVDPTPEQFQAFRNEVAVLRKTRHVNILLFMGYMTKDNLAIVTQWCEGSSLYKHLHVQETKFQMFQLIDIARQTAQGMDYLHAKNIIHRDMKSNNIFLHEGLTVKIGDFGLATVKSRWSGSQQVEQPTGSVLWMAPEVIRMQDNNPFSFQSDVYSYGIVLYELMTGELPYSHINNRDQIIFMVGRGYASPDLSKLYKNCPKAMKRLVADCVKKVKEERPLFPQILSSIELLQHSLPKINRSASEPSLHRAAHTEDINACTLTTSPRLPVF

First: COc1cc(Nc2cncc(-c3ccc(C(N)=O)cc3)n2)cc(OC)c1OC
Second: COc1cc(Nc2cncc(-c3ccc(NC(=O)Nc4ccccc4)cc3)n2)cc(OC)c1OC
The IC50 of the first is lower: 38.2 µM for the first, over 100 µM for the second.

Going from `CC(=O)Nc1ccc(Oc2cncc(Nc3cccc(-c4cnco4)c3)n2)c2ccccc12` to `CC(=O)Nc1cccc2c(Oc3cncc(Nc4cccc(-c5cnco5)c4)n3)cccc12`, the IC50 rises from 1.52 µM to 6.96 µM (4.6-fold).

`COc1cc(Nc2cncc(Oc3ccc(NC(C)=O)c4ccccc34)n2)cc(OC)c1OC` showed an IC50 of 20.3 µM.

Test system: not listed separately
Test: Selectivity ratio of IC50 for CRAF to IC50 for human BRAF V600E mutant

Compared with `COc1cc(Nc2cncc(-c3ccc(C(N)=O)cc3)n2)cc(OC)c1OC`, `COc1cc(Nc2cncc(-c3ccc(NC(=O)Nc4ccccc4)cc3)n2)cc(OC)c1OC` is higher in Ratio IC50: 34 for the first, over 86 for the second.

First: CC(=O)Nc1ccc(Oc2cncc(Nc3cccc(-c4cnco4)c3)n2)c2ccccc12
Second: CC(=O)Nc1cccc2c(Oc3cncc(Nc4cccc(-c5cnco5)c4)n3)cccc12
The Ratio IC50 of the first is lower: 5 for the first, 11 for the second.

For `COc1cc(Nc2cncc(Oc3ccc(NC(C)=O)c4ccccc34)n2)cc(OC)c1OC`, the Ratio IC50 was 36.

Target: Serine/threonine-protein kinase B-raf (Homo sapiens, UniProt P15056, V600E)
Sequence (P15056 2-766 V600E limits assumed): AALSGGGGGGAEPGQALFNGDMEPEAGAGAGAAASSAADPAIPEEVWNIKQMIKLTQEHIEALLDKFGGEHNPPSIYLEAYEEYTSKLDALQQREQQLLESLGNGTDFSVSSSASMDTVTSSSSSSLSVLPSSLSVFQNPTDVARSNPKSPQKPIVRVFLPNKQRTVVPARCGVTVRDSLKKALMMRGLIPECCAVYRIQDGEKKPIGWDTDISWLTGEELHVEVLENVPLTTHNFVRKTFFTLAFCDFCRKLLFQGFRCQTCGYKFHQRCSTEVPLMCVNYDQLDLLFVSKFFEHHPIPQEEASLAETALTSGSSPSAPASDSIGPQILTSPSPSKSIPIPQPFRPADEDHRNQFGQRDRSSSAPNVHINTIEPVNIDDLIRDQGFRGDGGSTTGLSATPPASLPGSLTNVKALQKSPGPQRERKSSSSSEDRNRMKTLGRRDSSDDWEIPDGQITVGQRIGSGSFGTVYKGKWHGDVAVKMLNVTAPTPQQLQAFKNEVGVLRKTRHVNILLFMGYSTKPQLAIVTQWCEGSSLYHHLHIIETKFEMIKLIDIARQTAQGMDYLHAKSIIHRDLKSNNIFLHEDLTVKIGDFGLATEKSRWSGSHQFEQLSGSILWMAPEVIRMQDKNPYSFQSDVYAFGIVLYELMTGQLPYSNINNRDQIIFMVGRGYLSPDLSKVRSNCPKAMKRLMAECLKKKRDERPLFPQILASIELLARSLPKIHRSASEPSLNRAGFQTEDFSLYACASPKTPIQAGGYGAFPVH
Description: Inhibition of human BRAF V600E mutant expressed in SF9 cells

Going from `COc1cc(Nc2nc(-c3cccc(NC(C)=O)c3)cnc2NC(C)=O)cc(OC)c1OC` to `COc1cc(Nc2cncc(-c3cccc(NC(C)=O)c3)n2)cc(OC)c1OC`, the IC50 falls from over 100 µM to 3.5 µM. The second is the more potent here.

Going from `COc1cc(Nc2cncc(Nc3ccc(O)cc3)n2)cc(OC)c1OC` to `COc1cc(Nc2cncc(Nc3ccc(F)cc3)n2)cc(OC)c1OC`, the IC50 rises from 4.9 µM to 19 µM (3.9-fold).

Compared with `COc1cc(Nc2cncc(Oc3ccc4c(c3)C(=O)CC4)n2)cc(OC)c1OC`, `COc1cc(Nc2cncc(Oc3ccc4c(c3)CCC4=O)n2)cc(OC)c1OC` is 3.2-fold higher in IC50: 22 µM for the first, 70 µM for the second.

Going from `COc1cc(Nc2cncc(Oc3ccc4c(c3)OC(=O)CC4)n2)cc(OC)c1OC` to `COc1cc(Nc2cncc(Oc3ccc4c(c3)CCCC4=O)n2)cc(OC)c1OC`, the IC50 rises from 44 µM to 76 µM (1.7-fold).

Compared with `CC(=O)Nc1cccc2c(Oc3cncc(Nc4ccc5c(c4)C(=O)OC5)n3)cccc12`, `CC(=O)Nc1cccc2c(Oc3cncc(Nc4cccc(-c5cnco5)c4)n3)cccc12` is 3.8-fold lower in IC50: 2.5 µM for the first, 0.65 µM for the second.

`COc1cc(Nc2cncc(-c3ccc(O)cc3)n2)cc(OC)c1OC` and `COc1cc(Nc2cncc(-c3ccc(CO)cc3)n2)cc(OC)c1OC` are within 1.5-fold of each other in IC50: 18 µM for the first, 26 µM for the second.

`COc1cc(Nc2cncc(Oc3ccc4c(c3)CCC/C4=N\O)n2)cc(OC)c1OC` and `COc1cc(Nc2cncc(Oc3ccc4c(c3)/C(=N/O)CC4)n2)cc(OC)c1OC` are within 1.5-fold of each other in IC50: 92 µM for the first, 86 µM for the second.

Compared with `COc1cc(Nc2cncc(Nc3ccncc3)n2)cc(OC)c1OC`, `COc1cc(Nc2cncc(Nc3ccccc3)n2)cc(OC)c1OC` is 3.4-fold higher in IC50: 4.7 µM for the first, 16 µM for the second.

Going from `COc1cc(Nc2cncc(Oc3cccc4ncccc34)n2)cc(OC)c1OC` to `COc1cc(Nc2cncc(Oc3ccnc4ccccc34)n2)cc(OC)c1OC`, the IC50 falls from 10 µM to 1.5 µM (6.7-fold). The second is the more potent here.

Compared with `COc1cc(Nc2cncc(-c3ccncc3)n2)cc(OC)c1OC`, `COc1cc(Nc2cncc(-c3cccnc3)n2)cc(OC)c1OC` is 7.6-fold higher in IC50: 2.9 µM for the first, 22 µM for the second.

Compared with `COc1cc(Nc2cncc(Oc3cccc4c3CC/C4=N\O)n2)cc(OC)c1OC`, `COc1cc(Nc2cncc(Oc3cccc4c3CCC4=O)n2)cc(OC)c1OC` is 13-fold higher in IC50: 1.4 µM for the first, 18 µM for the second. The first is the more potent here.

`COc1cc(Nc2cncc(Oc3ccc(/C(C)=N/O)cc3)n2)cc(OC)c1OC` and `COc1cc(Nc2cncc(Oc3ccc(C(C)=O)cc3)n2)cc(OC)c1OC` are within 1.5-fold of each other in IC50: 26 µM for the first, 34 µM for the second.

Compared with `COc1cc(Nc2cncc(Oc3cccc(Cl)c3)n2)cc(OC)c1OC`, `COc1cc(Nc2cncc(Oc3cccc(F)c3)n2)cc(OC)c1OC` is 1.6-fold higher in IC50: 36 µM for the first, 56 µM for the second. The first is the more potent here.

Compared with `COc1cc(Nc2cncc(Oc3cccc4c3CCCC4=O)n2)cc(OC)c1OC`, `COc1cc(Nc2cncc(Oc3cccc4c3CCCC4)n2)cc(OC)c1OC` is 1.6-fold lower in IC50: 29 µM for the first, 18 µM for the second.

`COc1cc(Nc2cncc(Nc3cccc(NC(C)=O)c3)n2)cc(OC)c1OC` and `COc1cc(Nc2cncc(Nc3ccc(NC(C)=O)cc3)n2)cc(OC)c1OC` are within 1.5-fold of each other in IC50: 14 µM for the first, 16 µM for the second.

Going from `COc1cc(Nc2cncc(Oc3cccc4[nH]ccc34)n2)cc(OC)c1OC` to `COc1cc(Nc2cncc(Oc3cccc4ccccc34)n2)cc(OC)c1OC`, the IC50 falls from 7.4 µM to 1.2 µM (6.2-fold).

`COc1cc(Nc2cncc(Oc3cccc(NC(C)=O)c3)n2)cc(OC)c1OC` and `COc1cc(Nc2cncc(Oc3cccc(C(C)=O)c3)n2)cc(OC)c1OC` are within 1.5-fold of each other in IC50: 13 µM for the first, 19 µM for the second.

Going from `COc1cc(Nc2cncc(Oc3cccc(/C(C)=N/O)c3)n2)cc(OC)c1OC` to `COc1cc(Nc2cncc(Oc3ccccc3)n2)cc(OC)c1OC`, the IC50 rises from 11 µM to 31 µM (2.8-fold).

Going from `COc1cc(Nc2cncc(Oc3ccncc3)n2)cc(OC)c1OC` to `COc1cc(Nc2cncc(Oc3cccnc3)n2)cc(OC)c1OC`, the IC50 rises from 16 µM to 45 µM (2.8-fold).

Going from `COc1cc(Nc2cncc(-c3cccc(O)c3)n2)cc(OC)c1OC` to `COc1cc(Nc2cncc(-c3cccc(C#N)c3)n2)cc(OC)c1OC`, the IC50 rises from 4 µM to 9.8 µM (2.5-fold).

Compared with `COc1cc(Nc2cncc(Oc3ccc4ccccc4c3)n2)cc(OC)c1OC`, `COc1cc(Nc2cncc(Oc3ccc4ncccc4c3)n2)cc(OC)c1OC` is lower in IC50: over 100 µM for the first, 29 µM for the second. The second is the more potent here.

First: COc1cc(Nc2cncc(Nc3cccc(F)c3)n2)cc(OC)c1OC
Second: COc1cc(Nc2cncc(Oc3ccccc3F)n2)cc(OC)c1OC
The IC50 of the first is 3.8-fold lower: 12 µM for the first, 45 µM for the second.

Compared with `COc1cc(Nc2cncc(-c3ccc(C(N)=O)cc3)n2)cc(OC)c1OC`, `COc1cc(Nc2cncc(-c3ccc(C=O)cc3)n2)cc(OC)c1OC` is 2.7-fold higher in IC50: 1.12 µM for the first, 3 µM for the second.

Going from `COc1cc(Nc2cncc(Oc3ccccc3-c3ccccc3)n2)cc(OC)c1OC` to `COc1cc(Nc2cncc(Oc3cccc4cnccc34)n2)cc(OC)c1OC`, the IC50 falls from 10 µM to 3.8 µM (2.6-fold). The second is the more potent here.

Compared with `COc1cc(Nc2cncc(-c3cccc(NC(C)=O)c3)c2)cc(OC)c1OC`, `COc1cc(Nc2cncc(Oc3ccc(NC(C)=O)cc3)n2)cc(OC)c1OC` is 4.7-fold lower in IC50: 26 µM for the first, 5.5 µM for the second.

Going from `CC(=O)Nc1ccc(Oc2cncc(Nc3cccc(-c4cnco4)c3)n2)c2ccccc12` to `COc1cc(Nc2cncc(Oc3ccc(NC(C)=O)c4ccccc34)n2)cc(OC)c1OC`, the IC50 rises from 0.31 µM to 0.56 µM (1.8-fold). The first is the more potent here.

Going from `COc1cc(Nc2cncc(Oc3cccc4c(NC(C)=O)cccc34)n2)cc(OC)c1OC` to `COc1cc(Nc2cncc(Sc3cccc4ccccc34)n2)cc(OC)c1OC`, the IC50 rises from 0.41 µM to 9.8 µM (24-fold).

Going from `CCOC(=O)c1cccc(-c2cncc(Nc3cc(OC)c(OC)c(OC)c3)n2)c1` to `COc1cc(Nc2cncc(-c3ccc(NC(=O)Nc4ccccc4)cc3)n2)cc(OC)c1OC`, the IC50 falls from 14 µM to 1.16 µM (12-fold).
